Measured values reported in patent publication US20110015371A1 (Vertex Pharmaceuticals Incorporated, priority 1994, published 2011).
pIC50: −log10 of the molar value. Counter-ions that a name gives are not always drawn. Non-standard residues stand in square brackets, D forms with d. Residues, ends and D or L forms follow the SMILES beside them. *: point of attachment. Pro(4R-OPh) = O=C(O)[C@@H]1C[C@@H](Oc2ccccc2)CN1; Hyp = O=C(O)[C@@H]1C[C@@H](O)CN1; Bn = c1ccc(C*)cc1; Allyl = C=CC*

The molecules below were run on Human Peripheral Blood Mononuclear Cells (PBMC) or Enriched Adherent Mononuclear Cells (assay: Cell assay: IL-1β assay with human PBMC or enriched adherent mononuclear cells). Conditions: Example 2 table; LPS-stimulated cells, mature IL-1β in supernatant by ELISA.
Type: cell-based
From the text: IL-1β Assay with a Mixed Population of Human Peripheral Blood Mononuclear Cells (PBMC) or Enriched Adherent Mononuclear Cells
Processing of pre-IL-1S by ICE can be measured in cell culture using a variety of cell sources. Human PBMC obtained from healthy donors provides a mixed population of lymphocyte subtypes and mononuclear cells that produce a spectrum of interleukins and cytokines in response to many classes of physiological stimulators. Adherent mononuclear cells from PBMC provides an enriched source of normal monocytes for selective studies of cytokine production by activated cells.
An initial dilution series of test compound in DMSO or ethanol is prepared, with a subsequent dilution into RPMI-10% FBS media (containing 2 mM L-glutamine, 10 mM HEPES, 50 U and 50 ug/ml pen/strep) respectively to yield drugs at 4× the final test concentration containing 0.4% DMSO or 0.4% ethanol. The final concentration of DMSO is 0.1% for all drug dilutions. A concentration titration which brackets the apparent Ki for a test compound determined in an ICE inhibition assay is generally used for the primary compound screen.
We generally test 5-6 compound dilutions and have performed the cellular component of the assay in duplicate, with duplicate ELISA determinations on each cell culture supernatant.
Buffy coat cells isolated from one pint human blood (yielding 40-45 ml final volume plasma plus cells) are diluted with media to 80 ml and LeukoPREP separation tubes (Becton Dickinson) are each overlaid with 10 ml of cell suspension. After 15 min centrifugation at 1500-1800×g, the plasma/media layer is aspirated and then the mononuclear cell layer is collected with a Pasteur pipette and transferred to a 15 ml conical centrifuge tube (Corning). Media is added to bring the volume to 15 ml, gently mix the cells by inversion and centrifuge at 300×g for 15 min. Resuspend the PBMC pellet in a small volume of media, count cells and adjust to 6×10^6 cells/ml.
For the cellular assay, add 1.0 ml of the cell suspension to each well of a 24-well flat bottom tissue culture plate (Corning), 0.5 ml test compound dilution and 0.5 ml LPS solution (Sigma #L-3012; 20 ng/ml solution prepared in complete RPMI media; final LPS concentration 5 ng/ml). The 0.5 ml additions of test compound and LPS are usually sufficient to mix the contents of the wells. Three control mixtures are run per experiment, with either LPS alone, solvent vehicle control, and/or additional media to adjust the final culture volume to 2.0 ml. The cell cultures are incubated for 16-18 hr at 37° C. in the presence of 5% CO2.
At the end of the incubation period, cells are harvested and transferred to 15 ml conical centrifuge tubes. After centrifugation for 10 min at 200×g, supernatants are harvested and transferred to 1.5 ml Eppendorf tubes. It may be noted that the cell pellet may be utilized for a biochemical evaluation of pre-IL-1S and/or mature IL-1β content in cytosol extracts by western blotting or ELISA with pre-IL-1β specific antisera.
PBMC are isolated and prepared as described above. Media (1.0 ml) is first added to wells followed by 0.5 ml of the PBMC suspension. After a one hour incubation, plates are gently shaken and nonadherent cells aspirated from each well. Wells are then gently washed three times with 1.0 ml of media and final resuspended in 1.0 ml media. The enrichment for adherent cells generally yields 2.5−3.0×10^5 cells per well. The addition of test compounds, LPS, cell incubation conditions and processing of supernatants proceeds as described above.
We have used Quantikine kits (R&D Systems) for measurement of mature IL-1β. Assays are performed according to the manufacturer's directions. Mature IL-1β levels of about 1-3 ng/ml in both PBMC and adherent mononuclear cell positive controls are observed. ELISA assays are performed on 1:5, 1:10 and 1:20 dilutions of supernatants from LPS-positive controls to select the optimal dilution for supernatants in the test panel.
Molecule `C[C@@H](C(=O)N[C@H](C=O)CC(=O)O)n1cccc(NC(=O)CCc2ccccc2)c1=O` [Compound 54a] has a pIC50 of 5.40 to 5.70.

Same assay, conditions: Homo sapiens, PBMC, Example 2 table; LPS-stimulated cells, mature IL-1β in supernatant by ELISA
Work on `C[C@H](NC(=O)c1cnc(Cc2ccccc2)[nH]1)C(=O)N[C@H](C=O)CC(=O)O` [Compound 33c, (3S)3-[N-(2-Benzylimidazole-4-carbonyl)-L-alaninyl]amino-4-oxobutanoic acid] yielded a pIC50 of 4.70. Molecule `C[C@H](NC(=O)c1cnc(CCc2ccccc2)[nH]1)C(=O)N[C@H](C=O)CC(=O)O` [Compound 33a, (3S)3-{N-[2-(2-Phenylethyl)imidazole-4-carbonyl]-L-alaninyl}amino-4-oxobutanoic acid] has a pIC50 of 4.60. Work on `CC(=O)N[C@@H](Cc1ccc(O)cc1)C(=O)N[C@H](C(=O)N1C[C@H](Oc2ccccc2)C[C@H]1C(=O)N[C@H](C=O)CC(=O)O)C(C)C` [I, N-(N-Acetyl-tyrosinyl-valinyl-(4-phenoxyprolinyl))-3-amino-4-oxobutanoic acid] (Ac-YV[Pro(4R-OPh)]D-aldehyde) yielded a pIC50 of 5.59. In the case of `CC(=O)N[C@@H](Cc1ccc(O)cc1)C(=O)N[C@H](C(=O)N1C[C@H](OCc2ccccc2)C[C@H]1C(=O)N[C@H](C=O)CC(=O)O)C(C)C` [Compound K, N-[N-Acetyl-tyrosinyl-valinyl-(4-benzyloxy)prolinyl]-3-amino-4-oxobutanoic acid] (Ac-YV[Hyp](Bn)D-aldehyde), the pIC50 was 4.96 to 5.70. `CC(=O)N[C@@H](Cc1ccc(O)cc1)C(=O)N[C@H](C(=O)N1C[C@H](O)C[C@H]1C(=O)N[C@H](C=O)CC(=O)O)C(C)C` [J, N-[N-Acetyl-tyrosinyl-valinyl-(4-hydroxyprolinyl)]-3-amino-4-oxobutanoic acid] (Ac-YV[Hyp]D-aldehyde) showed a pIC50 of 5.15 to 5.30.

Same assay, conditions: Homo sapiens, PBMC, Example 4 table; LPS-stimulated cells, mature IL-1β in supernatant by ELISA
In the case of `C[C@H](NC(=O)c1cnc(Cc2ccccc2)[nH]1)C(=O)N[C@H](C=O)CC(=O)O` [Compound 33c, (3S)3-[N-(2-Benzylimidazole-4-carbonyl)-L-alaninyl]amino-4-oxobutanoic acid], the pIC50 was 4.70. `C[C@H](NC(=O)c1nc(CCCc2ccccc2)c[nH]1)C(=O)N[C@H](C=O)CC(=O)O` [Compound 20d, (3S)3-{N-[4-(3-Phenylpropyl)imidazole-2-carbonyl]-L-alaninyl}amino-4-oxo-butanoic acid] showed a pIC50 of 5.21. With `C[C@H](NC(=O)c1cnc(CCc2ccccc2)[nH]1)C(=O)N[C@H](C=O)CC(=O)O` [Compound 33a, (3S)3-{N-[2-(2-Phenylethyl)imidazole-4-carbonyl]-L-alaninyl}amino-4-oxobutanoic acid] the pIC50 was 4.60. For `CC(C)[C@H](NC(=O)OCc1ccccc1)C(=O)N[C@@H](C)C(=O)N[C@H](CC(=O)O)C(=O)COCc1c(Cl)cccc1Cl` (mixture of isomers) [Compound 84a, (R,S)N-[N-(Phenylmethyloxy)carbonyl-valinyl-alaninyl]-3-amino-5-(2,6-dichlorophenylmethyloxy)-4-oxo-pentanoic acid], the pIC50 was 5.48. Work on `C[C@@H](C(=O)N[C@H](C=O)CC(=O)O)n1cccc(NC(=O)CCc2ccccc2)c1=O` [Compound 54a] yielded a pIC50 of 5.57. `O=C[C@H](CC(=O)O)NC(=O)Cn1c(Cc2ccccc2)ccc(NC(=O)CCc2ccccc2)c1=O` [Compound 54b, 3(S)3-(6-Benzyl-1,2-dihydro-2-oxo-3-(3-phenylpropionyl)amino-1-pyridyl)acetylamino-4-oxobutanoic acid] showed a pIC50 of 5.04.

Same assay, conditions: Homo sapiens, PBMC, Example 6 table; LPS-stimulated cells, mature IL-1β in supernatant by ELISA
`O=C(O)C[C@H](NC(=O)CN1C(=O)[C@@H](NC(=O)CCc2ccccc2)CN(C(=O)CCc2ccccc2)c2ccccc21)C(=O)COC(=O)c1c(Cl)cccc1Cl` [Compound 108a, 2,6-Dichlorobenzoic acid 4-carboxy-2-oxo-3(S)-{2-[2-oxo-5-(3-phenylpropionyl)-3(S)-(3-phenylpropionylamino)-2,3,4,5-tetrahydrobenzo[b][1,4]diazepin-1-yl]acetylamino}butyl ester] was tested, and the pIC50 was 4.76. With `C[C@H](NC(=O)c1ncc[nH]1)C(=O)N[C@@H](CC(=O)O)C(=O)COC(=O)c1c(Cl)cccc1Cl` [Compound 142] the pIC50 was 5.76. Molecule `CC(C(=O)N[C@H](C=O)CC(=O)O)N1CCN(Cc2ccccc2)C[C@H](NC(=O)OCc2ccccc2)C1=O` (mixture of isomers) [Compound 114a, 3(S)-{2(R,S)-[4-Benzyl-7-oxo-6(S)-(N-benzyloxycarbonylamino)-[1,4]diazepan-1-yl]-propionylamino}-4-oxo-butyric acid trifluoroacetic acid salt] has a pIC50 of 5.42. In the case of `O=C(O)C[C@H](NC(=O)[C@@H]1CCc2ncc(NC(=O)CCc3ccccc3)c(=O)n21)C(=O)COC(=O)c1c(Cl)cccc1Cl` [Compound 102a, 2,6-Dichloro-benzoic acid 4-carboxy-2-oxo-(3S)-{[4-oxo-3-(3-phenyl-propionylamino)-4,6,7,8-tetrahydro-pyrrolo[1,2-a]pyrimidine-(6S)-carbonyl]-amino}-butyl ester], the pIC50 was 5.40. `C[C@H](NC(=O)CN1C(=O)[C@@H](NC(=O)CCc2ccccc2)CN(C(=O)CCc2ccccc2)c2ccccc21)C(=O)C(=O)O` [Compound 106b, 2-Oxo-3(S)-{2-[2-oxo-5-(3-phenylpropionyl)-3(S)-(3-phenyl-propionyl-amino)-2,3,4,5-tetrahydrobenzo[b][1,4]diazepin-1-yl]acetylamino}butyric acid] showed a pIC50 of 5.54. Work on `CC(C(=O)N[C@H](C=O)CC(=O)O)N1CCN(C(=O)CCc2ccccc2)C[C@H](NC(=O)CCc2ccccc2)C1=O` (mixture of isomers) [Compound 115, 4-Oxo-3(S)-{2(R,S)-[7-oxo-4-(3-phenyl-propionyl)-6(S)-(3-phenyl-propionylamino)-[1,4]diazepan-1-yl]-propionylamino}-butyric acid] yielded a pIC50 of 5.22. Molecule `COc1ccc(CCCc2cnc(C(=O)N3C[C@H](Oc4ccccc4)C[C@H]3C(=O)N[C@H](C=O)CC(=O)O)[nH]2)cc1` [Compound 22e, 3(S)-[(1-{5-[3-(4-Methoxyphenyl)propyl]-1H-imidazole-2-carbonyl}-4(R)-phenoxypyrrolidine-2(S)-carbonyl)amino]-4-oxobutanoic acid] has a pIC50 of less than 4.70. `CS(=O)(=O)N[C@H]1CCC(=O)N2CCC[C@@H](C(=O)N[C@@H](CC(=O)O)C(=O)COC(=O)c3c(Cl)cccc3Cl)N2C1=O` [Compound 138] gave a pIC50 of 6.43. Work on `C[C@@H](C(=O)N[C@@H](CC(=O)O)C(=O)COC(=O)c1c(Cl)cccc1Cl)n1cccc(NC(=O)CCc2ccccc2)c1=O` [Compound 130] yielded a pIC50 of 5.92. `O=C[C@H](CC(=O)O)NC(=O)Cn1c(Cc2ccccc2)ccc(NC(=O)CCc2ccccc2)c1=O` [Compound 54b, 3(S)3-(6-Benzyl-1,2-dihydro-2-oxo-3-(3-phenylpropionyl)amino-1-pyridyl)acetylamino-4-oxobutanoic acid] gave a pIC50 of 4.70. Molecule `C=CCO[C@@H]1C[C@@H](C(=O)N[C@H](C=O)CC(=O)O)N(C(=O)[C@@H](NC(=O)[C@H](Cc2ccc(O)cc2)NC(C)=O)C(C)C)C1` [Compound 85, N-(N-Acetyl-tyrosinyl-valinyl-(4(R)-allyloxyprolinyl))-3(S)-amino-4-oxobutanoic acid] (Ac-YV[Hyp](Allyl)D-aldehyde) has a pIC50 of 5.01. With `O=C(O)C[C@H](NC(=O)[C@@H]1CCCN2C(=O)CC[C@H](NC(=O)CCc3ccccc3)C(=O)N12)C(=O)COC(=O)c1c(Cl)cccc1Cl` [Compound 136] the pIC50 was 6.00.
